Common to all, as to details: 200 µM NADPH, 0.1 M potassium phosphate pH 6.4, 30 °C
One data set relates to T1, McTRI.
T1 construct: gene TRI
Kind of data set: NADPH consumption at […] nm, Michaelis-Menten fit. It counts as biochemical, Mandragora caulescens.

Another data set deals with T2, LcTRI.
T2 construct: gene TRI
Kind of data set: NADPH consumption at […] nm, Michaelis-Menten fit. It counts as biochemical, Lycium chinense.

In the next data set the test system is T3, BaTRI.
T3 construct: gene TRI
Kind of data set: NADPH consumption at […] nm, Michaelis-Menten fit. It counts as biochemical, Brugmansia arborea.

In data set [1] the test system is CN1[C@@H]2CC[C@H]1CC(=O)C2. The experiment in a line: purified protein. It counts as biochemical, Solanum tuberosum.

In the case of `CN1[C@@H]2CC[C@H]1CC(=O)C2` [compound 5, tropinone], the Km (usually the substrate concentration at which the rate is half of its maximum) in the data set with McTRI was 90 ± 10 µM; with LcTRI, 2910 ± 140 µM; in the data set with BaTRI it was 310 ± 30 µM.

On to “StTRI (Solanum tuberosum; A101V/A193G/L159V/V147L)”, for which, in data set [1], the Michaelis constant (Km) was 110 ± 10 µM.

In the case of StTRI (Solanum tuberosum; A101V/L159V), in data set [1], the Michaelis constant (Km) is 280 ± 70 µM; the catalytic constant (kcat) (commonly the number of substrate molecules converted per active site and unit of time at saturation) amounted to 3.31 ± 0.20 s⁻¹.
